In ChEMBL document CHEMBL4028852, “Design of a Chemical Probe for the Bromodomain and Plant Homeodomain Finger-Containing (BRPF) Family of Proteins” (J Med Chem, 2017):

Experiments:
[1] = target: T1, Bromodomain-containing protein 1 (Homo sapiens, UniProt O95696); experiment: Inhibition of human BRPF2 (556 to 688 residues) expressed in Escherichia coli BL21 after 1 hr by BROMOscan assay
T1 sequence (O95696 whole entry): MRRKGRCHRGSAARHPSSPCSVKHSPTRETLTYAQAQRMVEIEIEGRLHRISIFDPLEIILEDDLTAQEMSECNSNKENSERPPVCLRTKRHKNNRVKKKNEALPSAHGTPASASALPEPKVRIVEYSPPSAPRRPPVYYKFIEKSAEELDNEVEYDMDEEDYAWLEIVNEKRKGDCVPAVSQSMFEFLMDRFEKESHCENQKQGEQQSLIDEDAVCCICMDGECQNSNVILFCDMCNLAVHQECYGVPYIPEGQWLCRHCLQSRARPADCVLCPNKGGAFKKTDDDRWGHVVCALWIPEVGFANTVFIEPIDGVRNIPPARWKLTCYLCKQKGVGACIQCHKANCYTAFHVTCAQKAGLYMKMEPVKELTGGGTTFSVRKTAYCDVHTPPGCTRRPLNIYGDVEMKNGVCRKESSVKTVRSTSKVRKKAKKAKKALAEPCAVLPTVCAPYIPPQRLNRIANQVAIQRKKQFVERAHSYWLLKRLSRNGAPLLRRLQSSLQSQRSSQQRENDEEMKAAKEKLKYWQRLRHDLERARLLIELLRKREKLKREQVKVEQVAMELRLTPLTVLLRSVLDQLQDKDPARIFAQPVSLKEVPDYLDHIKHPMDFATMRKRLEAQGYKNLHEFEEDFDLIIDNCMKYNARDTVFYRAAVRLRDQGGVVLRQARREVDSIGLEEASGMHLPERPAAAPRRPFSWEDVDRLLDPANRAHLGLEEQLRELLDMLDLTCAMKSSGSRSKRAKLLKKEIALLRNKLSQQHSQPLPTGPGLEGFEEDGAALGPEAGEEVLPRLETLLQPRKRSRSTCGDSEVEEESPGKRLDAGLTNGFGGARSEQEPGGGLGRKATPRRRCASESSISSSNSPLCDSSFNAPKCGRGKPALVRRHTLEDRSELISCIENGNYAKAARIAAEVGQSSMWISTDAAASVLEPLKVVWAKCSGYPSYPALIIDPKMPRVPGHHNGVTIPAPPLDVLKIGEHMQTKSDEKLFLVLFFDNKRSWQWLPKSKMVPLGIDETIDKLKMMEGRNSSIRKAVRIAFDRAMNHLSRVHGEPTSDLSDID

[2] = target: T2, Bromodomain and PHD finger-containing protein 3 (Homo sapiens, UniProt Q9ULD4); experiment: Inhibition of human BRPF3 (588 to 701 residues) expressed in Escherichia coli BL21 after 1 hr by BROMOscan assay
T2 sequence (Q9ULD4 whole entry): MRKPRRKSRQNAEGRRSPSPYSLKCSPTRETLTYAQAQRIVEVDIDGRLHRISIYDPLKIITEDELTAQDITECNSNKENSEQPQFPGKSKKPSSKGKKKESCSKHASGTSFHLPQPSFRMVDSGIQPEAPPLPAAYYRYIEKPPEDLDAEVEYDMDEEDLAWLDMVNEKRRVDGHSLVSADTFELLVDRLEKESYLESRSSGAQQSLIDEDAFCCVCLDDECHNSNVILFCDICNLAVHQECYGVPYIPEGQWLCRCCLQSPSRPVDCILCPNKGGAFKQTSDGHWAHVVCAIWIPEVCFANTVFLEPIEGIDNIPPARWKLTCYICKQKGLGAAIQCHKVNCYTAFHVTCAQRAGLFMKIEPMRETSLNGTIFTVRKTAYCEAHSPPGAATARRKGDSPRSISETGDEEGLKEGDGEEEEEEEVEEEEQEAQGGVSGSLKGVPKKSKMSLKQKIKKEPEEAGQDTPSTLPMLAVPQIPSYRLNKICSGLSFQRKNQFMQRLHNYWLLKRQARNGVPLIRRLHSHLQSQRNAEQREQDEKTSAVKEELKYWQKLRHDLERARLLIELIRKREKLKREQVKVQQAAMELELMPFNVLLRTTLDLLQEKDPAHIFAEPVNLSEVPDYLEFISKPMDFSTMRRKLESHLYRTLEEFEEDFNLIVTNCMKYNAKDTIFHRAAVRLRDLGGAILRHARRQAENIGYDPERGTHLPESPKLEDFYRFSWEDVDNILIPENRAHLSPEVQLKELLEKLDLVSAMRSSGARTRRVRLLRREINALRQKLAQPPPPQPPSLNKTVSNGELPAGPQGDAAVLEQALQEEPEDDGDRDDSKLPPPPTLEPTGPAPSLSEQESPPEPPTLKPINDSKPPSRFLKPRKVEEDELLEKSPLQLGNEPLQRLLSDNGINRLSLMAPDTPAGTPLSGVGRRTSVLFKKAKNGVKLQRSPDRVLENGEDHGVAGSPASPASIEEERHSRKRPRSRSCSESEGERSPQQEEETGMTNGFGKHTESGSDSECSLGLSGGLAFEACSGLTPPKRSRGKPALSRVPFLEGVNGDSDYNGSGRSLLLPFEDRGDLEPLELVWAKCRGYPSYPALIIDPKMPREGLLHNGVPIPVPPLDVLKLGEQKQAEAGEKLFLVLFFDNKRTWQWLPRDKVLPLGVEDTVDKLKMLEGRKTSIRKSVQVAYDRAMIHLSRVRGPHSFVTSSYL

Peregrin = target: T3, Peregrin (Homo sapiens, UniProt P55201); experiment: Inhibition of human BRPF1 (627 to 740 residues) expressed in Escherichia coli BL21 after 1 hr by BROMOscan assay
T3 sequence (P55201 whole entry): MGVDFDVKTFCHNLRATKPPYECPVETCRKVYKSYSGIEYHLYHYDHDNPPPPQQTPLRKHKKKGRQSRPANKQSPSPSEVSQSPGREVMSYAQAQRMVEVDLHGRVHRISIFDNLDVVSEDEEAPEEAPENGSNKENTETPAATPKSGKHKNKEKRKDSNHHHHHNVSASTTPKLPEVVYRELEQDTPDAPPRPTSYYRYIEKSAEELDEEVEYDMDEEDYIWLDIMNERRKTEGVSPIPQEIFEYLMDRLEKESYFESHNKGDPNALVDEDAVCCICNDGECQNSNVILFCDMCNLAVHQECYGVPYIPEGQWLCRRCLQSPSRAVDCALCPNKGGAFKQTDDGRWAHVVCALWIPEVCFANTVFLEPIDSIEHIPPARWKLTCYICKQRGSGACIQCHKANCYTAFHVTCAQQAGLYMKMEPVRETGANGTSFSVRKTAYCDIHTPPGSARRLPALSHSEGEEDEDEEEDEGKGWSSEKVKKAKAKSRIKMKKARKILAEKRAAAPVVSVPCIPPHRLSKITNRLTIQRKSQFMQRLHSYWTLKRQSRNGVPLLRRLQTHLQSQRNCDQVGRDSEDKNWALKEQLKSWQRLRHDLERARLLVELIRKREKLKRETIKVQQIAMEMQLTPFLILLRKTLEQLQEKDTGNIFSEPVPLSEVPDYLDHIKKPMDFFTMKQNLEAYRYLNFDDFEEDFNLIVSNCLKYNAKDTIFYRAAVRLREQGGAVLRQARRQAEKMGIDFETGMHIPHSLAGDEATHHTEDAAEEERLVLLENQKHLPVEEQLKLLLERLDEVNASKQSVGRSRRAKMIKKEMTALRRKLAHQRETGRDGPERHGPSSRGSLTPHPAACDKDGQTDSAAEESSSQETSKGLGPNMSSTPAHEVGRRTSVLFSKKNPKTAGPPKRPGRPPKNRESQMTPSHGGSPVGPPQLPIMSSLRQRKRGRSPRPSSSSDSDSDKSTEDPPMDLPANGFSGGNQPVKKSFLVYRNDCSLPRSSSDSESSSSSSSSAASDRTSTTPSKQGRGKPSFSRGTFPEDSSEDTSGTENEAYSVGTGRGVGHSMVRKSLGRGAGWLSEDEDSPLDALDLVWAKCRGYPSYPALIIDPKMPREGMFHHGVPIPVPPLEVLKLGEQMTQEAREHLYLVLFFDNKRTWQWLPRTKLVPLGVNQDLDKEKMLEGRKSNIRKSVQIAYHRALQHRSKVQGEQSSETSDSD

Peregrin (Homo sapiens) = target: T4, Peregrin (Homo sapiens) (UniProt P55201)
T4 sequence (whole entry): T3 sequence (P55201 whole entry)
Description: Binding affinity to BRPF1 (unknown origin) assessed as change in melting temperature at 10 uM by differential scanning fluorimetry based thermal shift assay

[3] = target: Bromodomain-containing protein 4 (Homo sapiens, UniProt O60885); experiment: Inhibition of human BRD4 isoform long bromodomain 1 (44 to 168 residues) expressed in Escherichia coli BL21 after 1 hr by BROMOscan assay
[4] = Inhibition of cell proliferation of human HRA19 cells after 72 hrs by MTS assay; assay type: functional; details: HRA19, 72 h
[5] = Inhibition of cell proliferation of human RERF-LC-Sq1 cells after 72 hrs by MTS assay; assay type: functional; details: RERF-LC-Sq1, 72 h
NCI-H1703 = experiment: Inhibition of cell proliferation of human NCI-H1703 cells after 72 hrs by MTS assay; assay type: functional; details: NCI-H1703, 72 h
DMS-114 = experiment: Inhibition of cell proliferation of human DMS114 cells after 72 hrs by MTS assay; assay type: functional; details: DMS-114, 72 h
[6] = target: T5, Bromodomain-containing protein 9 (Homo sapiens, UniProt Q9H8M2)
T5 sequence (Q9H8M2 whole entry): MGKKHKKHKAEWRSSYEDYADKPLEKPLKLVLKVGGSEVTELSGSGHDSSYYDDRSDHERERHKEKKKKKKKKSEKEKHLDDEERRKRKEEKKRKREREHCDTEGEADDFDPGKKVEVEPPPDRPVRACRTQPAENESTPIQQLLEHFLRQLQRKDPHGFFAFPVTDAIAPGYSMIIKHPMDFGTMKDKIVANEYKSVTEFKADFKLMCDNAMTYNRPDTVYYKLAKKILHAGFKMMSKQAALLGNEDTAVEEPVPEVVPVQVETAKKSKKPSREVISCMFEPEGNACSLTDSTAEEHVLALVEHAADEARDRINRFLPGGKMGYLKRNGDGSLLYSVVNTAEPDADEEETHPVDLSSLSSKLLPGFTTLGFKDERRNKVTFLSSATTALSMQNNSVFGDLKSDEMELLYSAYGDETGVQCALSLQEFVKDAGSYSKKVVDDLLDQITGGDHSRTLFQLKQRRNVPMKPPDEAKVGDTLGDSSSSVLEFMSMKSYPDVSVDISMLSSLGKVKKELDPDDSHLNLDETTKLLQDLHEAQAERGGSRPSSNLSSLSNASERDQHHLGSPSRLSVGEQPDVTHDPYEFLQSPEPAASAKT
Description: Inhibition of human BRD9 (130 to 259 residues) expressed in Escherichia coli BL21 after 1 hr by BROMOscan assay

ΔTm (Peregrin (Homo sapiens))	Compound	other results
4.3 °C	Cc1cc(=O)n(C)c2ccc(NS(=O)(=O)c3ccc(C#N)cc3)cc12	–
8.8 °C	COc1cc2c(cc1NS(=O)(=O)c1ccc(C#N)cc1)cc(C)c(=O)n2C	–
5.2 °C	Cn1c(=O)ccc2cc(NS(=O)(=O)c3ccc(C#N)cc3)ccc21	–
9.7 °C	Cc1cc2cc(NS(=O)(=O)c3ccc(C#N)cc3)ccc2n(C)c1=O	GI50 [4]: 15600 nM; GI50 [5]: 17100 nM; GI50 (NCI-H1703): > 30000 nM; GI50 (DMS-114): 16600 nM
1.8 °C	CN(c1ccc2c(ccc(=O)n2C)c1)S(=O)(=O)c1ccc(C#N)cc1	–
5.6 °C	COc1cc2c(ccc(=O)n2C)cc1NS(=O)(=O)c1ccc(C#N)cc1	IC50 [3]: > 10000 nM
5.6 °C	CCc1cc2cc(NS(=O)(=O)c3ccc(C#N)cc3)ccc2n(C)c1=O	–
3.1 °C	Cn1c(=O)ccc2cc(S(=O)(=O)Nc3ccc(C#N)cc3)ccc21	IC50 [2]: 2200 nM
4.4 °C	Cn1c(=O)ccc2cc(NS(=O)(=O)c3cccc(C#N)c3)ccc21	–

The remaining lines, values behind:

Compound	ΔTm (Peregrin (Homo sapiens))	other results
CC(C)c1cc2cc(NS(=O)(=O)c3ccc(C#N)cc3)ccc2n(C)c1=O	–	IC50 [1]: 14000 nM; IC50 [2]: 16000 nM; IC50 (Peregrin): 870 nM
COc1ccccc1S(=O)(=O)Nc1ccc2c(c1)cc(C)c(=O)n2C	10.2 °C	–
COc1cc2c(cc1NS(=O)(=O)c1ccccc1)cc(C)c(=O)n2C	9.4 °C	–
COc1cc2c(cc1NS(=O)(=O)c1ccc(C#N)cc1OC)cc(C)c(=O)n2C	12.7 °C	IC50 [3]: 1700 nM
Cn1c(=O)ccc2cc(NS(=O)(=O)C3CC3)ccc21	1.9 °C	–
COc1cc(C#N)ccc1S(=O)(=O)Nc1cc(F)c2c(c1)cc(C)c(=O)n2C	6.8 °C	IC50 [1]: 510 nM; IC50 [2]: 10000 nM; IC50 (Peregrin): 12 nM
CCN(c1ccc2c(c1)cc(C)c(=O)n2C)S(=O)(=O)c1ccc(C#N)cc1OC	–	IC50 (Peregrin): 110 nM
COc1cc(C#N)ccc1S(=O)(=O)N(c1ccc2c(c1)cc(C)c(=O)n2C)C(C)C	–	IC50 (Peregrin): 160 nM
Cn1c(=O)ccc2cc(NS(=O)(=O)c3ccccc3)ccc21	5.3 °C	IC50 [6]: 2200 nM
COc1cc2c(ccc(=O)n2C)cc1NS(=O)(=O)c1ccccc1	6.3 °C	–
CCS(=O)(=O)Nc1ccc2c(ccc(=O)n2C)c1	1.8 °C	–
CCc1cc2cc(NS(=O)(=O)c3ccc(C#N)cc3OC)ccc2n(C)c1=O	8 °C	IC50 (Peregrin): 93 nM
CCc1cc2cc(NS(=O)(=O)c3ccc(C#N)cc3OC)ccc2n(CC)c1=O	–	IC50 [1]: 4400 nM; IC50 [2]: 4600 nM; IC50 (Peregrin): 250 nM
Cn1c(=O)ccc2cc(NS(=O)(=O)c3ccccc3C#N)ccc21	2.4 °C	–
Cn1c(=O)ccc2cc(NS(C)(=O)=O)ccc21	1.4 °C	–
COc1cc(C#N)ccc1S(=O)(=O)N(C)c1ccc2c(c1)cc(C)c(=O)n2C	7.1 °C	–
COc1cc2c(ccc(=O)n2C)cc1N(C)S(=O)(=O)c1ccc(C#N)cc1	–	IC50 (Peregrin): 1000 nM
CCc1cc2cc(NS(=O)(=O)c3ccc(C#N)cc3)ccc2n(CC)c1=O	–	IC50 [3]: > 100000 nM
CC(C)S(=O)(=O)Nc1ccc2c(ccc(=O)n2C)c1	2.2 °C	–
Cn1c(=O)ccc2cc(NS(=O)(=O)C3CCCCC3)ccc21	3.9 °C	–
